US8703796B2, “3H-imidazo [4, 5-B] pyridine-6-carboxamides as anti-inflammatory agents” (Boehringer Ingelheim International GmbH, priority 2008, dated 2014)

Target: T1, recombinant human mPGES-1 (Homo sapiens, UniProt O14684)
T1 construct: made in house; host or cells: Rosetta E. coli (microsomal/membrane fraction)
T1 sequence (O14684 1-152): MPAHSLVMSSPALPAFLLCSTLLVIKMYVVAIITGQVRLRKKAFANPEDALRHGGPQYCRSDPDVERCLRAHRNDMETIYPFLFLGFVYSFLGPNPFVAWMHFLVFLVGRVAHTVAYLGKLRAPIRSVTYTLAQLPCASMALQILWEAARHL
Experiment: mPGES-1 inhibition, HTRF detection of PGE2
Assay type: biochemical
In short: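 Microsomes from E. coli Rosetta expressing the enzyme, in 0.1 M KPi pH 7.4 with 2.5 mM GSH, were preincubated 25 min at room temperature with inhibitor in DMSO. PGH2 was added, the reaction stopped after one minute with acidified FeCl2, and PGE2 quantified by HTRF after 750-fold dilution.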

inhibition at 10 µM [%]	inhibition at 1 µM [%]	SMILES
98	–	COCCOc1nc2[nH]c(Nc3c(Cl)cncc3Cl)nc2cc1C(=O)NCc1ccccc1C(F)(F)F [Example 800, 2-(3,5-Dichloro-pyridin-4-ylamino)-5-(2-methoxy-ethoxy)-N-((2-trifluoromethyl-phenyl)-methyl)-3H-imidazo[4,5-b]pyridine-6-carboxamide]
100	–	O=C(NCc1ccccc1C(F)(F)F)c1cc2nc(Nc3c(Cl)cncc3Cl)[nH]c2nc1OCC(F)(F)F [Example 853, 2-(3,5-Dichloro-pyridin-4-ylamino)-5-(2,2,2-trifluoro-ethoxy)-N-(2-trifluoromethyl-benzyl)-3H-imidazo[4,5-b]pyridine-6-carboxamide]
99	–	O=C(N[C@H]1CC[C@H](C(F)(F)F)CC1)c1cc2nc(Nc3cnccc3C(F)(F)F)[nH]c2nc1OCC(F)F [Example 799, 2-(4-Trifluoromethyl-pyridin-3-ylamino)-5-(2,2-difluoro-ethoxy)-N-(trans-4-trifluoromethyl-cyclohexyl)-3H-imidazo[4,5-b]pyridine-6-carboxamide]
99	–	CCOc1nc2[nH]c(Nc3c(Cl)cncc3Cl)nc2cc1C(=O)NCc1ncccc1C(F)(F)F [Example 843, 2-(3,5-Dichloro-pyridin-4-ylamino)-5-ethoxy-N-((3-trifluoromethyl-pyridin-2-yl)-methyl)-3H-imidazo[4,5-b]pyridine-6-carboxamide]
100	–	O=C(NCc1ncccc1C(F)(F)F)c1cc2nc(Nc3c(Cl)cncc3Cl)[nH]c2nc1OCC(F)(F)F [Example 855, 2-(3,5-Dichloro-pyridin-4-ylamino)-5-(2,2,2-trifluoro-ethoxy)-N-((3-trifluoromethyl-pyridin-2-yl)-methyl)-3H-imidazo[4,5-b]pyridine-6-carboxamide]
98	–	O=C(NCc1ncccc1C(F)(F)F)c1cc2nc(Nc3c(Cl)cc(F)cc3Cl)[nH]c2nc1OCC(F)(F)F [Example 830, 2-(2,6-Dichloro-4-fluoro-phenylamino)-5-(2,2,2-trifluoro-ethoxy)-N-((3-trifluoromethyl-pyridin-2-yl)-methyl)-3H-imidazo[4,5-b]pyridine-6-carboxamide]

The next lines start with the compound.

SMILES	inhibition at 10 µM [%]	inhibition at 1 µM [%]
CC(C)[C@H]1CC[C@H](NC(=O)c2cnc3c(c2)nc(Nc2c(Cl)cccc2Cl)n3C)CC1 [Example 400, 2-(2,6-Dichlorophenylamino)-N-((1r,4r)-4-isopropylcyclohexyl)-3-methyl-3H-imidazo[4,5-b]pyridine-6-carboxamide]	97	–
Cn1c(Nc2c(F)cccc2C(F)(F)F)nc2cc(C(=O)Nc3ccc(Br)cc3)c(OCC(F)F)nc21 [Example 771, N-(4-Bromophenyl)-2-(2-fluoro-6-trifluoromethylphenylamino)-5-(2,2-difluoro-ethoxy)-3-methyl-3H-imidazo[4,5-b]pyridine-6-carboxamide]	–	100
Cn1c(Nc2c(Cl)cccc2Cl)nc2cc(C(=O)NCc3ccccc3C(F)(F)F)cnc21 [Example 468, 2-(2,6-Dichlorophenylamino)-3-methyl-N-(2-trifluoromethyl-benzyl)-3H-imidazo[4,5-b]pyridine-6-carboxamide]	98	–
CC(C)(C)[C@H]1CC[C@H](NC(=O)c2cnc3[nH]c(Nc4c(Cl)cccc4Cl)nc3c2)CC1 [Example 379, N-((1r,4r)-4-tert.-Butylcyclohexyl)-2-(2,6-dichlorophenylamino)-3H-imidazo[4,5-b]pyridine-6-carboxamide]	100	–
O=C(N[C@H]1CC[C@H](C(F)(F)F)CC1)c1cnc2[nH]c(Nc3c(Cl)cccc3Cl)nc2c1 [Example 459, 2-(2,6-Dichlorophenylamino)-N-((1r,4r)-4-trifluoromethyl-cyclohexyl)-3H-imidazo[4,5-b]pyridine-6-carboxamide]	100	–
Cn1c(Nc2c(Cl)cccc2Cl)nc2cc(C(=O)N[C@H]3CC[C@H](C(F)F)CC3)cnc21 [Example 560]	93	–
O=C(N[C@H]1CC[C@H](C(F)(F)F)CC1)c1cc2nc(Nc3c(Cl)cccc3C(F)(F)F)[nH]c2nc1OCC(F)F [Example 778, 2-(2-Chloro-6-trifluoromethyl-phenylamino)-5-(2,2-difluoro-ethoxy)-N-(trans-4-trifluoromethyl-cyclohexyl)-3H-imidazo[4,5-b]pyridine-6-carboxamide]	–	98
O=C(N[C@H]1CC[C@H](C(F)(F)F)CC1)c1cc2nc(Nc3c(F)cccc3Cl)[nH]c2nc1OCC(F)F [Example 785, 2-(2-Chloro-6-fluoro-phenylamino)-5-(2,2-difluoro-ethoxy)-N-(trans-4-trifluoromethyl-cyclohexyl)-3H-imidazo[4,5-b]pyridine-6-carboxamide]	100	–
CC#CCn1c(Nc2c(Cl)cccc2Cl)nc2cc(C(=O)NC3CCCCC3)cnc21 [Example 523, 3-(But-2-ynyl)-N-cyclohexyl-2-(2,6-dichlorophenylamino)-3H-imidazo[4,5-b]pyridine-6-carboxamide]	96	–
